According to the supplement of paper PMC8253809:

How the values were obtained:
Test in all cases: growth inhibition relative to DMSO (0) and positive control (1) (fraction); higher = more growth inhibition
DIPGX29 [1] = tested on: DIPGX29 (H3.3 K27M diffuse intrinsic pontine glioma line)
Protocol: (§1)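 Single-agent arm (compound 2 only) of the paxalisib / mirdametinib dose-matrix plates, 7 days, adherent 384-well. CellTiter-Glo RLU was normalised to fractional activity between DMSO (0) and the positive control (1).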

HGGX42 [2] = tested on: HGGX42 (H3.3 G34R paediatric high-grade glioma line)
Protocol: as §1

HABS [3] = tested on: HABS (astrocyte control)
Protocol: as §1

HGGX6 [4] = tested on: HGGX6 (H3.3 G34R paediatric high-grade glioma line)
Protocol: as §1

DIPGX7 [5] = tested on: DIPGX7 (H3.3 K27M diffuse intrinsic pontine glioma line)
Protocol: as §1

iASTRO [6] = tested on: iASTRO (astrocyte control)
Protocol: as §1

DIPGX37 [7] = tested on: DIPGX37 (H3.3 K27M diffuse intrinsic pontine glioma line)
Protocol: as §1

DIPGX29 [8] = tested on: DIPGX29; remark: listed apart in the source
Protocol: (§2)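 Single-agent arm (compound 1 only) of the paxalisib / mirdametinib dose-matrix plates, 7 days, adherent 384-well. CellTiter-Glo RLU was normalised to fractional activity between DMSO (0) and the positive control (1).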

HGGX42 [9] = tested on: HGGX42; remark: listed apart in the source
Protocol: as §2

HABS [10] = tested on: HABS; remark: listed apart in the source
Protocol: as §2

HGGX6 [11] = tested on: HGGX6; remark: listed apart in the source
Protocol: as §2

DIPGX7 [12] = tested on: DIPGX7; remark: listed apart in the source
Protocol: as §2

iASTRO [13] = tested on: iASTRO; remark: listed apart in the source
Protocol: as §2

DIPGX37 [14] = tested on: DIPGX37; remark: listed apart in the source
Protocol: as §2

O=C(NOC[C@H](O)CO)c1ccc(F)c(F)c1Nc1ccc(I)cc1F
growth inhibition
Details | 0.009766 µM | 0.01953 µM | 0.03906 µM | 0.07812 µM | 0.15625 µM | 0.3125 µM | 0.625 µM | 1.25 µM | 5 µM | 20 µM
DIPGX7 [5] | – | – | -0.134 | -0.0334 | -0.0318 | -0.00916 | 0.0291 | 0.0919 | 0.221 | 0.144
DIPGX7 [12] | 0.00514 | -0.0128 | -0.0429 | -0.0583 | -0.0706 | -0.0675 | -0.0189 | 0.069 | 0.226 | 0.169
DIPGX29 [1] | – | – | 0.0243 | 0.134 | 0.108 | 0.159 | 0.301 | 0.477 | 0.795 | 0.903
DIPGX29 [8] | 0.0664 | 0.079 | 0.113 | 0.122 | 0.121 | 0.185 | 0.301 | 0.44 | 0.787 | 0.903
DIPGX37 [7] | – | – | -0.168 | -0.0488 | 0.038 | 0.147 | 0.274 | 0.418 | 0.857 | 0.9777
DIPGX37 [14] | -0.0815 | -0.107 | -0.0915 | -0.0274 | 0.0635 | 0.18 | 0.339 | 0.511 | 0.9225 | 0.9749
HABS [3] | – | – | -0.334 | -0.268 | -0.258 | -0.201 | -0.0364 | 0.168 | 0.618 | 0.797
HABS [10] | -0.13 | -0.164 | -0.228 | -0.269 | -0.234 | -0.0414 | 0.126 | 0.275 | 0.665 | 0.853
HGGX6 [4] | – | – | -0.174 | -0.0709 | -0.0557 | 0.064 | 0.133 | 0.156 | 0.414 | 0.596
HGGX6 [11] | -0.059 | -0.035 | -0.0725 | -0.0513 | -0.0455 | 0.0143 | 0.0902 | 0.0994 | 0.353 | 0.581
HGGX42 [2] | – | – | -0.199 | -0.114 | -0.121 | -0.215 | -0.198 | -0.0799 | 0.284 | 0.494
HGGX42 [9] | -0.0885 | -0.0961 | -0.107 | -0.127 | -0.145 | -0.165 | -0.133 | -0.126 | 0.241 | 0.441
iASTRO [6] | – | – | 0.0464 | 0.0732 | 0.0675 | 0.0849 | 0.116 | 0.0295 | 0.0268 | 0.058
iASTRO [13] | 0.0411 | 0.0442 | 0.0806 | 0.0816 | 0.113 | 0.124 | 0.173 | 0.119 | 0.0668 | 0.0562
